Patent publication US11154569B2, “Ruthenium μ-nitrido complexes and their use as calcium uptake inhibitors” (CORNELL UNIVERSITY, priority 2018, dated 2021)

What was measured:
[1] = target: T1, mitochondrial calcium uniporter (MCU) (Homo sapiens, UniProt Q8NE86); assay: Cytoplasmic and mitochondrial Ca2+ dynamics in intact HeLa cells after histamine; type: cell-based; parameters: 30 min) and Rhod-2 AM; endogenous in cells; host or cells: HeLa (intact; some experiments with transfected Ca2+ sensors R-GECO1 and GCamP6-mt, MCU itself not transfected); details: intact HeLa cells, 50 μM for 30 minutes, histamine 100 μM; Rhod-2 AM and GCamP6-mt
T1 sequence (Q8NE86 51-351): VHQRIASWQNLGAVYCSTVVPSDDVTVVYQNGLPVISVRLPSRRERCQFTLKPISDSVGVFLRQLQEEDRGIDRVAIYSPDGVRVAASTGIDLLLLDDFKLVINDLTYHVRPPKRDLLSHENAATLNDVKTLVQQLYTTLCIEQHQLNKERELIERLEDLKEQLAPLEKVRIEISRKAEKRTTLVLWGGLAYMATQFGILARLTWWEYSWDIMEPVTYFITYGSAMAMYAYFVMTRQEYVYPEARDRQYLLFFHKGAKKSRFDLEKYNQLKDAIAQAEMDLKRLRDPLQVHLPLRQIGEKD
T1 sequence (Q9H4I9 48-107 partner limits assumed): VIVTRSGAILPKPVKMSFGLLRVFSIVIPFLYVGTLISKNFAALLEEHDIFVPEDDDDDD
Method: HeLa cells were loaded with Fluo-4-AM (5 μM; 30 min) and Rhod-2 AM (2 μM; 50 min) in extracellular medium as previously described (F. Perocchi et al, Nature 2010, 467, 291-296). Coverslips were mounted in an open perfusion microincubator at 37° C. and imaged. After 1 minute of baseline recording, histamine (100 μM) was added, and confocal images were recorded every 3 seconds at 488 and 561 nm excitation using a 40× oil objective. Images were analyzed and quantified by using ImageJ (NIH).
HeLa cells were transiently transfected with genetically encoded cytosolic and mitochondrial targeted Ca^2+ sensors R-GECO1 and GCamP6-mt plasmids. After 48 hours, the transfected cells were treated with MCU inhibitors (C1, C-2, and C-3; 50 μM). After 1 minute of baseline recording, histamine (100 μM) was added, and the change of R-GECO1 and GCamP6-mt fluorescence was measured with 488-nm and 561-nm excitation on a confocal microscope equipped with a 40× oil objective. Images were analyzed and quantified by using ImageJ (NIH).
Encouraged by the high cell permeability and mitochondrial selectivity of C-2, the capability of this complex to inhibit MCU-mediated mCa^2+ uptake in intact, non-permeabilized cells was investigated Briefly, HeLa cells were loaded with the cytosolic calcium concentration ([Ca^2+]) indicator Fluo-4 AM and the mitochondrial calcium concentration ([…]) indicator Rhod-2 AM in the presence or absence of C-1, C-2, and C-3 (50 μM). Cells were stimulated with the GPCR agonist histamine (100 μM) to rapidly elevate cCa^2+ levels to induce mCa^2+ uptake (Z. Dong et al., Mol. Cell 2017, 65, 1014-1028).
FIGS. 3A and 3B are graphs showing results of cytosolic ([Ca^2+]e, Fluo-4 AM) and mitochondrial ([Ca^2+]m, Rhod-2 AM) calcium transients in HeLa cells after treatment with histamine (100 μM) that were pretreated with or without C-1, C-2, or C-3 (50 μM) for 30 minutes. FIGS. 3C and 3D are graphs showing results of cytosolic ([Ca^2+]e, R-GECO) and mitochondrial ([Ca^2+]m, GCamP6-mt)) calcium transients in HeLa cells after treatment with histamine (100 μM) that were pretreated with or without C-1, C-2, or C-3 (50 μM) for 30 minutes. HeLa cells were co-transfected with R-GECO1 and GCamP6-mt. 48 hours post-transfection. Data are represented as mean±SEM. *p<0.05. n=3-6.

[2] = target: T1, mitochondrial calcium uniporter (MCU); assay: MCU-mediated Ca2+ uptake and ΔΨm in permeabilized HEK293T cells; type: cell-based; parameters: endogenous in cells; host or cells: HEK293T (digitonin-permeabilized); details: 5 μM compound, 20 μM Ca2+ bolus
Method: An equal number of IHEK293T (6×10^6 cells) were washed in Ca^2+ free PBS, pH 7.4, resuspended and permeabilized with 40 μg/ml digitonin in 1.5 ml of intracellular medium (ICM) composed of 120 mM KCl, 10 mM NaCl, 1 mM K—H2PO4, 20 mM HE PES-Tris, pH 7.2 and 2 μM thapsigargin to block the SERCA pump. All measurements were performed in the presence of 2 mM succinate. The permeabilized cells were loaded with JC-1 (800 nM) and Fura2-FF (0.5 μM), respectively. Fluorescence was monitored in a multi-wavelength excitation dual-wavelength emission fluorimeter. [Ca^2+]out is represented as the excitation ratio (340 nm/380 nm) of Fura2-FF/FA fluorescence and ΔΨm as the ratio of the fluorescence of J-aggregate (570 nm excitation/595 nm emission) and monomer (490 nm excitation/535 nm emission) forms of JC-1. A series of extra-mitochondrial Ca^2+ bolus (20 μM) was added and mitochondrial uncoupler, CCCP (2 jμM), were added at the indicated time points. All of the experiments were performed at 37° C. with constant stirring.
With the new nitrido-bridged ruthenium compounds C-2 and C-3 prepared, MCU-inhibitory properties of these compounds were evaluated and their activities compared to C-1, the oxo-bridged Ru360 analogue of the conventional art (S. R. Nathan et al., Inorg. Chem. 2017, 56, 3123-3126 and S. R. Nathan et al., J. Vis. Exp. 2017, 56527). The cytotoxicity of the complexes in HEK293 cells was first measured using the colorimetric thiazolyl blue tetrazolium bromide (MTT) assay, as well known in the art. […] To measure the effect of these compounds on MCU activity, permeabilized HEK293T cells were treated with commercially available Ru360, C-1, C-2, or C-3 (5 jμM) 200 seconds prior to the delivery of a 20 μM bolus of Ca^2+ in the presence of 2 mM succinate as an energy source and the sarco/endoplasmic reticulum Ca^2+-ATPase (SERCA) pump blocker thapsigargin to prevent ER Ca^2+ uptake (S. Shanmughapriya et al., Sci. Signal. 2015, 8, ra23).
FIGS. 2A-2C are graphs showing changes in mitochondrial membrane potential (ΔΨm, JC-1, top panel) and extramitochondrial Ca^2+([Ca^2+]out) clearance (Fura-2 FF, bottom panel) in digitonin permeabilized HEK293T cells in response to 20 μM of Ca^2+ after treatment with 5 μM of C-1 (FIG. 2A), C-2 (FIG. 2B), and C-3 (FIG. 2C). The transient drop in ΔΨm in control cells upon Ca^2+ addition indicates accumulation of Ca^2+ in the mitochondrial matrix. FIG. 2D is a graph quantifying the rate of [Ca^2+] uptake as a function of decrease in [Ca^2+]out after a […] Ca^2+ pulse. […] Additionally, ΔΨm was monitored using 5,5′,6,6′-tetrachloro-1,1′,3,3′-tetraethylbenzimidazolylcarbocyanine iodide (JC-1) dye (M. Reen et al., Biochemistry 1991, 30, 4480-4486).
Having identified (C-2 as a cell-permeable MCU inhibitor, a dose-response analysis was performed to determine the potency of C-2 towards mCa^2+ uptake inhibition of C-2 in a permeabilized cell system. Permeabilized IHEK293T cells were treated with C-2 (1 nM to 1 μM). A 20 μM Ca^2+ bolus was added after baseline recording, and the extra-mitochondrial calcium cleared was used as an indicator for MCU-mediated mCa^2+ uptake using Fura-2FF. The results are shown in FIGS. 4A-4C. FIG. 4A includes representative traces of [Ca^2+]out clearance in permeabilized HEK293T cells challenged with a range of C-2 concentrations (1, 2, 3, 5, and 10 nM). FIG. 4B is a graph comparing MCU-inhibitory effect by Ru360 (30 nM) and C-2 (2 and 10 nM) at lower concentrations. FIG. 4C is a graph showing calculation of dose-dependent IC50 inhibition by C-2 and Ru360. Data represent mean±SEM (n=3-6), n.s.=not significant. […] Furthermore, complete inhibition of mCa^2+ uptake was observed when cells were dosed with 10 nM C-2 while 500 nM of Ru360 was required for the same response (FIGS. 4A and 4B).

transient ΔΨm loss (JC-1) ([2]; permeabilized HEK293T cells): no transient A m loss
Substance: [Ru2(μ-O)(NH3)8(H2O)2]^+5 [C-1, reference compound]
inhibition of MCU-mediated mCa2+ uptake in intact cells [1]: did not show appreciable inhibition of mCa^2+ uptake
MCU mediated mCa2+ uptake ([2]; digitonin permeabilized HEK293T cells): significant reduction in MCU mediated mCa^2+ uptake
